The subject of the assay is P388 leukemia ip, CD2F1 mice, survival T/C. In words: NCI In Vivo Anticancer Drug Screen. Data for tumor model P388 Leukemia (intraperitoneal) in CD2F1 (CDF1) mice. The settings on record: endpoint: median survival time, higher = longer survival. The essentials:
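Mice carrying the transplanted tumor received test compound or vehicle. Survival was recorded in each group, and the value is the treated-group measurement divided by that of the vehicle-treated control group.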

The mark [1] stands for this setting: dose: 60.0 mg/kg/injection, schedule: Q01DX005 (ip), vehicle: saline.
Where [2] appears, read: dose: 120.0 mg/kg/injection, schedule: Q01DX005 (ip), vehicle: saline.
The mark [3] stands for this setting: dose: 240.0 mg/kg/injection, schedule: Q01DX005 (ip), vehicle: saline.
Setting [4] is: dose: 50.0 mg/kg/injection, schedule: Q01DX009 (ip), vehicle: saline with Tween-80.
Where [5] appears, read: dose: 100.0 mg/kg/injection, schedule: Q01DX009 (ip), vehicle: saline with Tween-80.
Setting [6] is: dose: 200.0 mg/kg/injection, schedule: Q01DX009 (ip), vehicle: saline with Tween-80.
[7] abbreviates: dose: 12.5 mg/kg/injection, schedule: Q01DX009 (ip), vehicle: saline.
Setting [8] is: dose: 12.5 mg/kg/injection, schedule: Q01DX009 (ip), vehicle: suspension in saline.
Where [9] appears, read: dose: 25.0 mg/kg/injection, schedule: Q01DX009 (ip), vehicle: saline.
Setting [10] is: dose: 50.0 mg/kg/injection, schedule: Q01DX009 (ip), vehicle: saline.
Setting [11] is: dose: 200.0 mg/kg/injection, schedule: Q01DX009 (ip), vehicle: saline.

“And” between values parts separate entries of the source, which are not always exact repeats. Identical values can stand only once. Inconclusive results and toxic doses are left out.

On to `O=[N+]([O-])c1ccc(-c2nnn(CCCN3CCOCC3)c2N2CCCCC2)cc1`, for which the T/C reads like this: (dose: 50.0 mg/kg/injection, schedule: Q01DX005 (ip), vehicle: Klucel (hydroxypropylcellulose) (HPC)) 107 % of control; (dose: 100.0 mg/kg/injection, schedule: Q01DX005 (ip), vehicle: Klucel (hydroxypropylcellulose) (HPC)) 107 % of control; (dose: 200.0 mg/kg/injection, schedule: Q01DX005 (ip), vehicle: Klucel (hydroxypropylcellulose) (HPC)) 107 % of control.
Turning to `CC(Cl)C(=O)Nc1cc2ccccc2oc1=O` (stereo unspecified), the T/C (dose: 60.0 mg/kg/injection, schedule: Q01DX005 (ip), vehicle: saline with Tween-80) is 106 % of control; the T/C (dose: 120.0 mg/kg/injection, schedule: Q01DX005 (ip), vehicle: saline with Tween-80) is 94 % of control; the T/C (dose: 240.0 mg/kg/injection, schedule: Q01DX005 (ip), vehicle: saline with Tween-80) is 93 % of control.
Regarding `OC(c1ccco1)c1nc2ccccc2s1` (stereo unspecified), the T/C (dose: 15.0 mg/kg/injection, schedule: Q01DX005 (ip), vehicle: Klucel (hydroxypropylcellulose) (HPC)) is 106 % of control; the T/C (dose: 30.0 mg/kg/injection, schedule: Q01DX005 (ip), vehicle: Klucel (hydroxypropylcellulose) (HPC)) was 100 % of control; the T/C (dose: 60.0 mg/kg/injection, schedule: Q01DX005 (ip), vehicle: Klucel (hydroxypropylcellulose) (HPC)) is 105 % of control and 92 % of control.
Regarding `CCCC(O)CN` (stereo unspecified), the T/C (dose: 100.0 mg/kg/injection, schedule: Q04DX003 (ip), vehicle: saline) was 103 % of control and the T/C (dose: 200.0 mg/kg/injection, schedule: Q04DX003 (ip), vehicle: saline) was 107 % of control.
For the compound `CN(C)C(=O)C1CCC(=O)N1` (stereo unspecified), the T/C is, setting by setting: under setting [1], 100 % of control; under setting [2], 109 % of control; under setting [3], 105 % of control.
As to `CC(=O)NC(C(=O)O)C(C)(C)SN=O` (stereo unspecified), the T/C is 93 % of control under setting [4], 98 % of control under setting [5] and 95 % of control under setting [6].
`OCC1OC(n2ccc3c(NO)ncnc32)C(O)C1O` (stereo unspecified): where the note is “dose: 0.46 mg/kg/injection, schedule: Q01DX005 (ip), vehicle: Klucel (hydroxypropylcellulose) (HPC)”, the T/C was 112 % of control.
Turning to `Cc1ccc(S(=O)(=O)c2ccc(Sc3cccc[n+]3[O-])c3nonc23)cc1`, the T/C is, setting by setting: (dose: 6.25 mg/kg/injection, schedule: Q01DX009 (ip), vehicle: saline) 103 % of control; under setting [7], 116 % of control; under setting [8], 110 % of control; under setting [9], 100 % of control; (dose: 25.0 mg/kg/injection, schedule: Q01DX009 (ip), vehicle: suspension in saline) 121 % of control; under setting [10], 103 % of control.
Turning to `CN(C)c1ccc([N+]([O-])=NC#N)cc1`, the T/C was 93 % of control (dose: 25.0 mg/kg/injection, schedule: Q04DX003 (ip), vehicle: saline with Tween-80); 95 % of control (dose: 50.0 mg/kg/injection, schedule: Q04DX003 (ip), vehicle: saline with Tween-80); 92 % of control (dose: 100.0 mg/kg/injection, schedule: Q04DX003 (ip), vehicle: saline with Tween-80).
With `CCC(=O)C(C)C(=O)CCC(=O)Nc1cc(Cl)ccc1Cl` (stereo unspecified), the T/C reads like this: under setting [1], 101 % of control; under setting [2], 103 % of control; under setting [3], 103 % of control.
Take `O=C(Nc1ncc([N+](=O)[O-])s1)c1cccnc1`: the T/C was 101 % of control (dose: 3.12 mg/kg/injection, schedule: Q01DX009 (ip), vehicle: suspension in saline); 87 % of control (dose: 6.25 mg/kg/injection, schedule: Q01DX009 (ip), vehicle: suspension in saline); 91 % of control under setting [7]; 87 % of control under setting [8]; 100 % of control under setting [10]; 88 % of control under setting [11].
For `CCOc1ccc(-n2c(=O)c(N=Nc3ccc(OC)cc3)c(O)n(-c3ccccc3Cl)c2=S)cc1`, the T/C by setting is: (dose: 50.0 mg/kg/injection, schedule: Q01DX001 (ip), vehicle: Klucel (hydroxypropylcellulose) (HPC)) 97 % of control; (dose: 100.0 mg/kg/injection, schedule: Q01DX001 (ip), vehicle: Klucel (hydroxypropylcellulose) (HPC)) 94 % of control; (dose: 200.0 mg/kg/injection, schedule: Q01DX001 (ip), vehicle: Klucel (hydroxypropylcellulose) (HPC)) 94 % of control.
On to `CC1(C)N=C(N)N=C(N)N1c1ccc(OCCCCNC(=O)c2ccc(S(=O)(=O)F)cc2)c(Cl)c1`, for which the T/C is, setting by setting: (dose: 25.0 mg/kg/injection, schedule: Q01DX009 (ip), vehicle: saline with Tween-80) 150 % of control; under setting [9], 161 % of control; under setting [10], 159 % of control.
For `FC(F)(F)c1ccc2c(c1)N(CCCN1CCN(CCCl)CC1)c1ccccc1S2`, the T/C (dose: 6.25 mg/kg/injection, schedule: Q04DX003 (ip), vehicle: saline) is 96 % of control; the T/C (dose: 12.5 mg/kg/injection, schedule: Q04DX003 (ip), vehicle: saline) was 101 % of control; the T/C (dose: 25.0 mg/kg/injection, schedule: Q04DX003 (ip), vehicle: saline) is 115 % of control.
As to `O=C(O)CCCCCOC(C[N+](=O)[O-])C(Cl)(Cl)Cl` (stereo unspecified), the T/C reads like this: under setting [4], 97 % of control; under setting [5], 102 % of control; under setting [6], 111 % of control.
Take `CCC1(O)CCC2C3CC=C4CCCCC4C3CCC21C` (stereo unspecified): the T/C runs as follows: under setting [10], 107 % of control; (dose: 100.0 mg/kg/injection, schedule: Q01DX009 (ip), vehicle: saline) 100 % of control; under setting [11], 100 % of control.

Source of the values: PubChem BioAssay AID330 (DTP/NCI, 2004).
